Experimental data as given in US11014934B2, “Antiseptic drug” (AO “TATKHIMFARMPREPARATY”, priority 2017, dated 2021).

Assay: Acute toxicity in mice after intragastric administration
Format: in vivo
Settings: both sexes, mouse, in vivo, po; Mice CD-1, intragastric administration; read-out: LD50 (95% confidence interval)
Protocol: The study was performed on mice of the CD-1 (ICR) line (6-8 weeks, weight not less than 18 g) of both sexes. […] Mice administered doses were 3000 mg/kg, 2000 mg/kg, 1000 mg/kg, 500 mg/kg and 50 mg/kg.

Work on `CCCCCCCCCCCC[N+](C)(C)Cc1cnc(C[N+](C)(C)CCCCCCCCCCCC)c2c1COC(CC)O2` (stereo not shown) [Compound I, 5,8-(Bis(methylene (N, N-dimethyl-N-dodecylammonium))-2-ethyl-4H-[1,3]dioxino [4,5-c]pyridiniumdichloride] yielded an LD50 of 1710 mg/kg.
